One test has as its system FOXO4. Description: FOXO4 knockdown by short hairpins: FOXO4 mRNA (QPCR) and punctate FOXO4 staining. The class given is cell-based, human. The following applies: HCA2 fibroblasts, 8 days after 10Gy XRAY. The text has this: FIG. 2. Knockdown of FOXO4 results in apoptosis rather than senescence in DNA-damaged IMR90 fibroblasts. A) Reduction in punctate FOXO4 staining and FOXO4 mRNA expression after 8 days 10Gy XRAY in HCA2 fibroblasts infected […] hairpins targeted at FOXO4. […] B) Increased cytoplasmic Cytochrome C staining (a marker of apoptosis; arrowheads) in DNA-damaged IMR90 cells infected with knockdown against FOXO4. The percentage apoptotic cells is quantified. C) Increased TUNEL staining (a second marker of apoptosis) in similar conditions a B.
FIG. 2A: HCA2 fibroblasts were infected with lentiviral particles containing a control shRNA-encoding vector targeted against a mature sequence in GFP (based on vector PLK0.1, Open Biosystems): 5′-[…]-3′ or two independent sequences in (human) FOXO4, shFOXO4-1: 5′-[…]-3′ and shFOXO4-2: 5′-[…]-3′. Following selection for two days in 0.5 μg/ml Puromycin cells were plated and processed as in FIG. 1 to determine FOXO4 mRNA expression and FOXO4 localization by immunofluorescence. FIG. 2B: IMR90 fibroblasts were infected and treated as in A). Following selection 2×10^5 cells were plated on coverslips and irradiated the next day. […] The percentage of cells with released Cytochrome C staining (translocated from punctual mitochondrial staining to diffuse or absent staining) was determined for 100 cells per condition. […]

The next test deals with A375 melanoma cells. Kind of test: Surviving fraction (MTS) of A375-shGFP versus A375-shFOXO4 cells treated with chemotherapeutic agents. Format: cell-based, human. Here is the method:
FIG. 12. FOXO4 inhibition on sensitizes A375 melanoma cells to inhibitors of the BRAF/MEK pathway. A) A375 cells stably infected with a control shRNA (shGFP) or an shRNA against FOXO4 (shFOXO4) were treated with the indicated concentrations of the BRAF^V600E-inhibitor PLX4032 and the percentage of the surviving fraction on was determined by Aqueous CellQuant assay either after day 6 (left panel) or day 11 (right panel). Note that for the right panel the cells were refreshed at day 7 with the exact same concentration on of PLX4032. B) Similar experiment as in A), except with the general RAF inhibitor RAF265. C) Similar experiment as in A), except with the MEK inhibitor AZD6244.
FIG. 12A: 2×10^4 A375-shGFP or A375-shFOXO4-2 cells were plated in triplicate in 96-well plate chambers. The next day the cells were incubated with the indicated concentrations of PLX4032 or left untreated. After 6 days the a CellTiter 96® AQueous One Solution Cell Proliferation Assay (MTS) was performed according to the manufacturer's instructions (Promega) to determine the relative number of cells versus Mock treated A375-shGFP or A375-shFOXO4-2 melanoma cells (Left panel). Additionally, in a separate experiment the cells were refreshed at day 7 with the same dose of PLX4032 and left for another 4 days after which the same procedure was performed. […]

The next test concerns JNK1/2. Particulars: in vitro and in cultured cells; literature; cited from earlier work.
The subject of test [1] is MCF7 mammary carcinoma cells. Kind of test: Cytochrome C release in MCF7 cells with FOXO4 knockdown treated with 5'-fluoro-uracil. Format: cell-based, human. The following applies: 5 μM, 40 h. Here is the method:
FIG. 11. Sensitization of melanoma cells other types of cancer to additional types of chemotherapy. A) A375 melanoma cells were incubated with the FOXO4-p53 blocking peptide mix in the presence or absence of 2 μM Cisplatin and after 4 days cellular morphology was visualized. […] B) MCF7 mammary carcinoma cells were infected with the short hairpins against FOXO4 and after puromycin selection treated with 5 μM 5′-fluoro-uracil. 40 h later the percentage Cytochrome C-release was scored. The immunofluorescence panels show staining of Cytochrome C. The top, middle and bottom left panels all show mitochondrial Cytochrome C staining. […] C) B16F10Luc mouse melanoma cells were infected with a mouse-specific short hairpin against FOXO4 and short hairpin #2 against human FOXO4 from FIG. 2 which shares sequence homology with mouse FOXO4. After puromycin selection cells were incubated with 10 μM Cisplatin and after 7 days cellular viability was determined by CellTiter 96® AQueous One Solution Cell Proliferation Assay (MTS).
FIG. 11A: 2×10^5 A375 melanoma cells were plated in 24-well plate chambers. The next day the cells were incubated with 50 μM DBD2-peptide or a mixture of 25 μM DBD2-peptide and 25 μM C-term peptide in the presence or absence of 2 μM Cisplatin. […]

Consider 5′-CGTCCACGAAGCAGTTCAAAT-3′ [shFOXO4-2], for which the “knockdown of FOXO4 mRNA and punctate FOXO4 staining” value in the test on FOXO4 is “induce knockdown of FOXO4 mRNA and reduction in punctate FOXO4”.
As for `N.N.[Cl][Pt][Cl]` [Cisplatin], the “sensitivity of A375-shFOXO4 versus A375-shGFP melanoma cells” value in the test on A375 melanoma cells is reported as “more sensitive”.
On to “dDdQdSdRdPdVdQdPdFdLdQdLdTdTdPdRdKdPdRdPdPdRdRdRdQdRdRdKdKdRG [D-JNK1]”, for which the “inhibition of JNK1/2 kinase activity” value in the test with JNK1/2 is “selectively blocks access to its substrates”.
Turning to `Cn1c(Nc2ccc(C(F)(F)F)cc2)nc2cc(Oc3ccnc(-c4ncc(C(F)(F)F)[nH]4)c3)ccc21` [RAF265], the “sensitivity of A375-shFOXO4 versus A375-shGFP melanoma cells” value with A375 melanoma cells was “more sensitive”.
With 5′-CCAGCTTCAGTCAGCAGTTAT-3′ [shFOXO4-1], in the test on FOXO4, the “knockdown of FOXO4 mRNA and punctate FOXO4 staining” value was “induce knockdown of FOXO4 mRNA and reduction in punctate FOXO4”.
With `O=c1[nH]cc(F)c(=O)[nH]1` [5-fluorouracyl], the “sensitization of MCF7 cells by FOXO4 knockdown (Cytochrome C release)” value in test [1] was “sensitized”.

The values are drawn from US20130288981A1, “TARGETING SENESCENT CELLS AND CANCER CELLS BY INTERFERENCE WITH JNK AND/OR FOXO4” (Buck Institute for Research on Aging, priority 2012, published 2013).
